# Data: patent US6020341A, “Enediyne quinone imines and methods of preparation and use thereof” (priority 1997, dated 2000)
# Like-named read-outs stand apart in the source and are kept apart here.
# Legend:
# [1] = test system: Human promyelocytic leukemic cell (HL-60); experiment: Cytotoxicity, HL-60; assay type: cell-based; conditions: for IC50 / IC90: Homo sapiens; for IC90: read-out: Cytotoxic Concentration IC90
# Text: (§1) | cell growth by 50% (IC50) in μM.
# [2] = test system: Human acute lymphoblastic T cells (CCRF-CEM); experiment: Cytotoxicity, CCRF-CEM; assay type: cell-based; conditions: for IC50 / IC90: Homo sapiens, CCRF-CEM; for IC90: read-out: Cytotoxic Concentration IC90
# Text: as §1
# CCRF-CEM/VM-1 cells = experiment: Cytotoxicity, CCRF-CEM/VM-1; assay type: cell-based, human; conditions: for IC50 / IC90: Homo sapiens, CCRF-CEM; for IC90: read-out: Cytotoxic Concentration IC90
# Text: as §1
# [3] = test system: Chinese hamster lung cells (DC-3F); experiment: Cytotoxicity, DC-3F; assay type: cell-based; conditions: for IC50 / IC90: Cricetulus griseus, DC3F; for IC90: read-out: Cytotoxic Concentration IC90
# Text: as §1
# HL-60 cells = experiment: Growth inhibition, XTT assay, HL-60; assay type: cell-based; conditions: Homo sapiens
# Description: (§2) Cells were platted on day 1, drug was added on day 2, and XTT assays (for HL-60, MT-2, MT-4 leukemic cells) or SRB assays (for 833K and SK-Br-3 solid tumor cells) were carried out on day 5.
# 833K solid tumor cells = experiment: Growth inhibition, SRB assay, 833K; assay type: cell-based; conditions: Homo sapiens, Table 8, 833K
# Description: as §2
# [4] = test system: SK-Br-3 solid tumor cells; experiment: Growth inhibition, SRB assay, SK-Br-3; assay type: cell-based; conditions: Homo sapiens, Table 8, SKBr-3, SRB
# Description: as §2
# MT4 cells = experiment: Cytotoxicity, MT4; assay type: cell-based; conditions: Table 15, MT4
# MT2 cells = experiment: Cytotoxicity, MT2; assay type: cell-based; conditions: Table 15, MT2
# B-16 melanoma = experiment: Antitumor activity against B-16 melanoma in mice (s.c. tumor, i.p. treatment); assay type: in vivo, mouse
# Description: (§3) ^a Tumor (2 × 10^6 cells) was inoculated s.c. Treatment
# (§4) started day 4, QD × 5, i.p.; control had nine mice, and each dose
# (§5) two mice; tumor size was evaluated on Day 7 after the beginning of
# (§6) started day 4, I.P., QD × 5; control had 3 mice, and each dose had
# (§7) mice; Tumor size was evaluated on day 7 after the beginning of treatment.
# sarcoma 180 [5] = experiment: Antitumor activity against sarcoma 180 in mice (s.c. tumor, i.p. treatment); assay type: in vivo, mouse
# Description: as §3, §4, §5, §6, §7
# [6] = test system: Lewis lung adenocarcinoma; experiment: Anticancer activity in B6D2F1 mice bearing Lewis lung adenocarcinoma; assay type: in vivo, mouse
# Description: ^a Tumor (2.5 × 10E6 cells) was inoculated S.C. on day (-3).
# Treatment started on day 1, I.P., Q.D.X5. Control had 6 mice and each dos
# had 5 mice. Tumor size was evaluated on day 7, day 10 and day 14.
# sarcoma 180 [7] = experiment: Antitumor activity against sarcoma 180 in B6D2F1 mice, b.i.d.x5; assay type: in vivo, mouse
# Text: ^a Tumor (3 × 10^6 cells) was inoculated S.C. on day -3.
# Antitumor treatment started on day 1, b.i.d.X5, IP.
# [8] = Table 3, CCRF-CEM/VM-1, EQI-6 = (1)
# [9] = Homo sapiens, read-out: Cytotoxic Concentration IC50
# [10] = Homo sapiens, read-out: Cytotoxic Concentration IC90
# [11] = Table 6, 0.2 mg/kg i.p. QD×5, day 7
# [12] = Table 6, 0.5 mg/kg i.p. QD×5, day 7
# [13] = Table 6, 2.0 mg/kg i.p. QD×5, day 7
# [14] = Table 11, 0.5 mg/kg i.p. Q.D.X5, Day 7
# [15] = Table 11, 0.5 mg/kg i.p. Q.D.X5, Day 10
# [16] = Table 11, 1.0 mg/kg i.p. Q.D.X5, Day 7
# [17] = Table 11, 1.0 mg/kg i.p. Q.D.X5, Day 10
# [18] = Table 11, 1.5 mg/kg i.p. Q.D.X5, Day 7
# [19] = Table 11, 1.5 mg/kg i.p. Q.D.X5, Day 10
# [20] = Table 11, 2.0 mg/kg i.p. Q.D.X5, Day 7
# [21] = Table 11, 2.0 mg/kg i.p. Q.D.X5, Day 10
# [22] = Table 12, 0.15 mg/kg IP b.i.d.X5, Day 7
# [23] = Table 12, 0.15 mg/kg IP b.i.d.X5, Day 14
# [24] = Table 12, 0.2 mg/kg IP b.i.d.X5, Day 7
# [25] = Table 12, 0.2 mg/kg IP b.i.d.X5, Day 14
# [26] = Table 12, 0.3 mg/kg IP b.i.d.X5, Day 7
# [27] = Table 12, 0.3 mg/kg IP b.i.d.X5, Day 14
structure (smiles),measurement,setting,value
CO[C@@]12[C@H](COC(N)=O)C3=C(C(=O)C(C)=C(N)C3=O)N1C[C@@H]1N[C@@H]12 [mitomycin C],IC50,"[1]; HL-60, Table 1, HL-60, read-out: IC50",0.0484 µM
same,IC50,"[1]; HL-60, Table 2, HL60, read-out: concentration required to inhibit cell growth by 50% (IC50)",0.048 µM
same,IC50,"[1]; HL-60, Table 3, HL-60, read-out: Cytotoxic Concentration IC50",0.0484 µM
same,IC90,"[1]; HL-60, Table 3, HL-60",0.197 µM
same,IC50,"[1]; HL-60, Table 15, HL-60, read-out: Cytotoxic Concentration IC50",0.051 µM
same,IC90,"[1]; HL-60, Table 15, HL-60",0.167 µM
same,Cytotoxic Concentration IC95,"[1]; Table 3, HL-60",0.319 µM
same,ratio of IC50 to EQI-6 (in parentheses),"[1]; Table 3, HL-60, EQI-6 = (1)",83.4 ×
same,ratio of IC90 to EQI-6 (in parentheses),"[1]; Table 3, HL-60, EQI-6 = (1)",75.8 ×
same,ratio of IC95 to EQI-6 (in parentheses),"[1]; Table 3, HL-60, EQI-6 = (1)",72.5 ×
same,Cytotoxic Concentration IC95,"[1]; Table 15, HL-60",0.25 µM
same,IC50,"[2]; Table 1, CCRF-CEM, read-out: IC50",0.14 µM
same,IC50,"[2]; Table 2, CCRF/CEM, read-out: concentration required to inhibit cell growth by 50% (IC50)",0.14 µM
same,IC50,"[2]; Table 3, CCRF-CEM, read-out: Cytotoxic Concentration IC50",0.14 µM
same,IC90,"[2]; Table 3, CCRF-CEM",0.364 µM
same,IC50,"[2]; Table 14, CCRF-CEM, read-out: Cytotoxic Concentration IC50",0.096 µM
same,IC90,"[2]; Table 14, CCRF-CEM",0.37 µM
same,Cytotoxic Concentration IC95,"[2]; Table 3, CCRF-CEM",0.503 µM
same,ratio of IC50 to EQI-6 (in parentheses),"[2]; Table 3, CCRF-CEM, EQI-6 = (1)",280 ×
same,ratio of IC90 to EQI-6 (in parentheses),"[2]; Table 3, CCRF-CEM, EQI-6 = (1)",165 ×
same,ratio of IC95 to EQI-6 (in parentheses),"[2]; Table 3, CCRF-CEM, EQI-6 = (1)",136 ×
same,Cytotoxic Concentration IC95,"[2]; Table 14, CCRF-CEM",0.584 µM
same,IC50,"CCRF-CEM/VM-1 cells; Table 2, CCRF/VM-1 (MDR/TopoII), read-out: concentration required to inhibit cell growth by 50% (IC50)",0.216 µM
same,IC50,"CCRF-CEM/VM-1 cells; Table 3, CCRF-CEM/VM-1, read-out: Cytotoxic Concentration IC50",0.216 µM
same,IC90,"CCRF-CEM/VM-1 cells; Table 3, CCRF-CEM/VM-1",0.895 µM
same,IC50,"CCRF-CEM/VM-1 cells; Table 14, CCRF-CEM/VM-1, read-out: Cytotoxic Concentration IC50",0.113 µM
same,IC90,"CCRF-CEM/VM-1 cells; Table 14, CCRF-CEM/VM-1",0.675 µM
same,Cytotoxic Concentration IC95,"CCRF-CEM/VM-1 cells; Table 3, CCRF-CEM/VM-1",1.373 µM
same,ratio of IC50 to EQI-6 (in parentheses),CCRF-CEM/VM-1 cells; [8],113.7 ×
same,ratio of IC90 to EQI-6 (in parentheses),CCRF-CEM/VM-1 cells; [8],45.5 ×
same,ratio of IC95 to EQI-6 (in parentheses),CCRF-CEM/VM-1 cells; [8],90.9 ×
same,Cytotoxic Concentration IC95,"CCRF-CEM/VM-1 cells; Table 14, CCRF-CEM/VM-1",1.239 µM
same,IC50,"[3]; Table 2, DC-3F, read-out: concentration required to inhibit cell growth by 50% (IC50)",0.081 µM
same,IC50,"[3]; Table 4, DC-3F, read-out: Cytotoxic Concentration IC50",0.0812 µM
same,IC90,"[3]; Table 4, DC-3F",0.374 µM
same,IC50,"[3]; Table 13, DC-3F, read-out: Cytotoxic Concentration IC50",0.059 µM
same,IC90,"[3]; Table 13, DC-3F",0.166 µM
same,Cytotoxic Concentration IC95,"[3]; Table 4, DC-3F",0.629 µM
same,ratio of IC50 to EQI-6 (in parentheses),"[3]; Table 4, DC-3F, EQI-6 = (1)",45.1 ×
same,ratio of IC90 to EQI-6 (in parentheses),"[3]; Table 4, DC-3F, EQI-6 = (1)",34 ×
same,ratio of IC95 to EQI-6 (in parentheses),"[3]; Table 4, DC-3F, EQI-6 = (1)",31.6 ×
same,Cytotoxic Concentration IC95,"[3]; Table 13, DC-3F",0.235 µM
same,IC50,"HL-60 cells; Table 8, HL-60, XTT, growth inhibition, read-out: IC50",0.08 µM
same,IC50,"HL-60 cells; Table 9, HL 60, XTT, 72 h, read-out: Dm",0.048 µM
same,IC50,833K solid tumor cells,0.3 µM
same,IC50,[4],0.3 µM
same,IC50,MT4 cells; [9],0.115 µM
same,IC90,MT4 cells; [10],0.253 µM
same,Cytotoxic Concentration IC95,MT4 cells,0.331 µM
same,IC50,MT2 cells; [9],0.169 µM
same,IC90,MT2 cells; [10],0.398 µM
same,Cytotoxic Concentration IC95,MT2 cells,0.532 µM
same,tumor inhibition,"B-16 melanoma; 0.5 mg/kg i.p. QDx5, B-16 melanoma",24.6%
same,AVE TUMOR VOLUME (T/C),B-16 melanoma; [11],0.952
same,AWC (average weight change),B-16 melanoma; [11],-1.9 g
same,AVE TUMOR VOLUME (T/C),B-16 melanoma; [12],0.756
same,AWC (average weight change),B-16 melanoma; [12],-0.9 g
same,AVE TUMOR VOLUME (T/C),B-16 melanoma; [13],0.143
same,AWC (average weight change),B-16 melanoma; [13],+0.4 g
same,tumor inhibition,"sarcoma 180 [5]; 0.5 mg/kg i.p. QDx5, sarcoma",37.5%
same,AVE TUMOR VOLUME (T/C),sarcoma 180 [5]; [11],0.845
same,AWC (average weight change),sarcoma 180 [5]; [11],-0.5 g
same,AVE TUMOR VOLUME (T/C),sarcoma 180 [5]; [12],0.625
same,AWC (average weight change),sarcoma 180 [5]; [12],-2.3 g
same,AVE TUMOR VOLUME (T/C),sarcoma 180 [5]; [13],0.188
same,AWC (average weight change),sarcoma 180 [5]; [13],-1.4 g
same,AWC (average weight change),[6]; [14],-1.5 g
same,Avg Tumor Vol (T/C),[6]; [14],0.530
same,AWC (average weight change),[6]; [15],-0.1 g
same,Avg Tumor Vol (T/C),[6]; [15],0.712
same,AWC (average weight change),[6]; [16],-0.8 g
same,Avg Tumor Vol (T/C),[6]; [16],0.380
same,AWC (average weight change),[6]; [17],-0.9 g
same,Avg Tumor Vol (T/C),[6]; [17],0.451
same,AWC (average weight change),[6]; [18],-1.5 g
same,Avg Tumor Vol (T/C),[6]; [18],0.340
same,AWC (average weight change),[6]; [19],-1.3 g
same,Avg Tumor Vol (T/C),[6]; [19],0.402
same,mortality,"[6]; Table 11, 2.0 mg/kg i.p. Q.D.X5",One of 5 mice died on day 7
same,AWC (average weight change),[6]; [20],-1.8 g
same,Avg Tumor Vol (T/C),[6]; [20],0.286
same,AWC (average weight change),[6]; [21],1.6 g
same,Avg Tumor Vol (T/C),[6]; [21],0.485
same,AWC (average weight change),sarcoma 180 [7]; [22],-0.6 g
same,Avg Tumor Volume (T/C),sarcoma 180 [7]; [22],0.650
same,AWC (average weight change),sarcoma 180 [7]; [23],+0.2 g
same,Avg Tumor Volume (T/C),sarcoma 180 [7]; [23],0.814
same,AWC (average weight change),sarcoma 180 [7]; [24],+0.8 g
same,Avg Tumor Volume (T/C),sarcoma 180 [7]; [24],0.538
same,AWC (average weight change),sarcoma 180 [7]; [25],-0.6 g
same,Avg Tumor Volume (T/C),sarcoma 180 [7]; [25],0.485
same,AWC (average weight change),sarcoma 180 [7]; [26],-1.8 g
same,Avg Tumor Volume (T/C),sarcoma 180 [7]; [26],0.249
same,AWC (average weight change),sarcoma 180 [7]; [27],-1.0 g
same,Avg Tumor Volume (T/C),sarcoma 180 [7]; [27],0.394
